Test system: S. typhimurium (ATCC 14028)
Assay type: cell-based, Salmonella typhimurium
Settings: discs on MH agar, overnight
Description: Screening of NK-lysin peptides was carried out against gram-negative S. typhimurium (ATCC 14028) bacteria. Overnight cultivation of the bacteria was carried out at a temperature of 3TC. A bacterial suspension was created in 10 mM sodium phosphate buffer pH 7.0 having a density of (2×10^6 CFU ml^−1) and plated on Muller-Hinton (MH) agar plates to inoculate. After the plates were dry, antibiotics discs of various concentrations (0 to 150 μg/ml) of antibiotic or NK-lysin peptides were applied to the surface of the inoculated plates. The plates were cultured overnight at 3TC and observed for restriction of growth by determining the diameter of bacterial-free zones surrounding each disc. Ceftazidime antibiotic was employed as a positive control.

| Compound | clear zone diameter |
| --- | --- |
| gentamicin [reference compound] | 28 mm |
| CC(C)(O/N=C(\C(=O)N[C@@H]1C(=O)N2C(C(=O)[O-])=C(C[n+]3ccccc3)CS[C@H]12)c1csc(N)n1)C(=O)O [ceftazidime, reference compound] | ~21 mm |

From patent publication US20220305093A1, “NK-LYSIN PEPTIDE COMPOSITIONS AND METHODS FOR THEIR USE AS ANTIMICROBIAL/ANTIVIRAL AGENTS” (priority 2021, published 2022)
